Source: PMC11087268, “A folate inhibitor exploits metabolic differences in Pseudomonas aeruginosa for narrow-spectrum targeting” (Nature Microbiology, 2024)
Where two headings read alike, the source gives them in different places.

Test system: P. aeruginosa clinical isolates
Type: cell-based, Pseudomonas aeruginosa
Details: for % Growth: 50ug/mL
Procedure: Percent growth was calculated by dividing the OD600 of fluorofolin antibiotic-treated wells by that of vehicle-only wells.

gentamycin was tested, and the clinical isolates resistant (77 P. aeruginosa clinical isolates (55 CDC/FDA, 22 blood), 50 μg ml^−1, growth inhibition >80% = sensitive) was 35.0%, the “% Growth” value (Isolate# 1) was 0.6518% and the “% Growth” value (Isolate# 2) was 105.422%. For the same substance, the “% Growth” value (Isolate# 3) was 61.3464%, the “% Growth” value (Isolate# 4) was 179.172% and the “% Growth” value (Isolate# 5) was 0%. For the same substance, the “% Growth” value (Isolate# 6) was 89.7261%, the “% Growth” value (Isolate# 7) was 110.349% and the “% Growth” value (Isolate# 8) was 97.3307%. The “% Growth” value (Isolate# 9) was 0%, the “% Growth” value (Isolate# 10) was 0% and the “% Growth” value (Isolate# 11) was 111.492%. For the same substance, the “% Growth” value (Isolate# 12) was 30.6669%, the “% Growth” value (Isolate# 13) was 9.611% and the “% Growth” value (Isolate# 14) was 99.0331%. The “% Growth” value (Isolate# 15) was 99.6274%, the “% Growth” value (Isolate# 16) was 86.3373% and the “% Growth” value (Isolate# 17) was 0.5763%. For the same substance, the “% Growth” value (Isolate# 18) was 84.8111%, the “% Growth” value (Isolate# 19) was 0% and the “% Growth” value (Isolate# 20) was 92.394%. The “% Growth” value (Isolate# 21) was 106.701%, the “% Growth” value (Isolate# 22) was 98.4485% and the “% Growth” value (Isolate# 23) was 0%. For the same substance, the “% Growth” value (Isolate# 24) was 0%, the “% Growth” value (Isolate# 25) was 0% and the “% Growth” value (Isolate# 26) was 111.123%. The “% Growth” value (Isolate# 27) was 88.2969%, the “% Growth” value (Isolate# 28) was 0% and the “% Growth” value (Isolate# 29) was 0%. For the same substance, the “% Growth” value (Isolate# 30) was 1.897%, the “% Growth” value (Isolate# 31) was 0% and the “% Growth” value (Isolate# 32) was 104.806%. For the same substance, the “% Growth” value (Isolate# 33) was 0%, the “% Growth” value (Isolate# 34) was 0% and the “% Growth” value (Isolate# 35) was 0%. The “% Growth” value (Isolate# 36) was 0%, the “% Growth” value (Isolate# 37) was 95.3633% and the “% Growth” value (Isolate# 38) was 100.4%. The “% Growth” value (Isolate# 39) was 0%, the “% Growth” value (Isolate# 40) was 0% and the “% Growth” value (Isolate# 41) was 0%. For the same substance, the “% Growth” value (Isolate# 42) was 0%, the “% Growth” value (Isolate# 43) was 82.8316% and the “% Growth” value (Isolate# 44) was 5.792%. The “% Growth” value (Isolate# 45) was 88.2389%, the “% Growth” value (Isolate# 46) was 13.0256% and the “% Growth” value (Isolate# 47) was 70.0551%. The “% Growth” value (Isolate# 48) was 0%, the “% Growth” value (Isolate# 49) was 0% and the “% Growth” value (Isolate# 50) was 2.976%. For the same substance, the “% Growth” value (Isolate# 51) was 0%, the “% Growth” value (Isolate# 52) was 0% and the “% Growth” value (Isolate# 53) was 0%. For the same substance, the “% Growth” value (Isolate# 54) was 0.0248%, the “% Growth” value (Isolate# 55) was 142.857% and the “% Growth” value (Isolate# 56) was 0%. The “% Growth” value (Isolate# 57) was 61.626%, the “% Growth” value (Isolate# 58) was 0.9683% and the “% Growth” value (Isolate# 59) was 34.5167%. The “% Growth” value (Isolate# 60) was 0%, the “% Growth” value (Isolate# 61) was 0% and the “% Growth” value (Isolate# 62) was 0%. For the same substance, the “% Growth” value (Isolate# 63) was 0%, the “% Growth” value (Isolate# 64) was 0% and the “% Growth” value (Isolate# 65) was 0%. The “% Growth” value (Isolate# 66) was 0%, the “% Growth” value (Isolate# 67) was 0% and the “% Growth” value (Isolate# 68) was 0%. For the same substance, the “% Growth” value (Isolate# 69) was 0.2922%, the “% Growth” value (Isolate# 70) was 0% and the “% Growth” value (Isolate# 71) was 0%. For the same substance, the “% Growth” value (Isolate# 72) was 106.187%, the “% Growth” value (Isolate# 73) was 0% and the “% Growth” value (Isolate# 74) was 0%. For the same substance, the “% Growth” value (Isolate# 75) was 0%, the “% Growth” value (Isolate# 76) was 0.1836% and the “% Growth” value (Isolate# 77) was 1.314%.
